Where two headings read alike, the source gives them in different places.
Columns and labels:
[1] = tested on: keratinocyte cells; assay type: cell-based, human; conditions: below 5×10^-4 M, 24 hours treatment
Description: (§1) Adult human keratinocytes from pooled donor skin were obtained from commercial sources (Cascade Biologics, Portland, Oreg., U.S.A.) and placed in 150 cm^2 bottom area culture flasks using culture medium 154 supplemented with HKGS (about 1%). At 80% confluency, cells were harvested with trypsin and cryopreserved until required.
The induction of apoptosis is a critical feature in the programmed cell death as it relates to disease conditions such as cancer, psoriasis, etc. where the uncontrolled proliferation of "immortal" cells such as keratinocytes is a causative feature of the disease. This example compares the ability of gallium maltol to induce apoptosis as compared to negative control (no gallium maltol), and positive control (CAM--an agent known to strongly induce apoptosis). The ability for gallium maltol to effect apoptosis was also measured by the inhibitory effect of ATA.
Specifically, keratinocyte cells were grown using medium 154 in 24 well plates seed with 2,500 cells/cm^2 as described above. Cultures were continued for 3 or 6 days when the cells had achieved about 20 or 60% confluence respectively. On these 2 occasions, media were aspirated from groups of 3 or 4 wells and replaced with high Ca^+2 medium either without supplement or with one of the following supplements:
1. Gallium maltol at a final concentration of one of the following: (a) 5×10^-4 M, (b) 1×10^-4 M, (c) 5×10^-5 M, (d) 1×10^-5 M, and (e) 1×10^-6 M;
4. As in (3) plus CAM at 1×10^-5 or 1×10^-6 M; and
5. As in (3) plus gallium maltol at 1×10^-4 or 2.5×10^-4 M;
(§2) Culture was renewed for a further 24 hours. At this time, media were removed and discarded, and the cells lysed with 200 μL/well of the solution provided in the Cell Death Detection Kit ELISA Plus (Boehringer Mannheim Biochemicals, Indianapolis, Ind., U.S.A., catalogue number 1774425). Aliquots of the lysate (20 μL) from each of 2 or 3 wells were assayed for nucleosomal enrichment following the kit instructions.

[2] = tested on: keratinocyte cells; assay type: cell-based, human; conditions: keratinocytes, 48 h, 500 µM
Experimental: as §1, §2
The evaluation of apoptosis of keratinocytes was conducted to determine the relative affect on apoptosis achieved by gallium maltol, gallium nitrate and maltol. Specifically, keratinocyte cells were seeded in 12 well plates seed using culture medium 154. Cultures were continued for 4 days and the medium was changed to medium 154 with 1.2 mM Ca^+2 either without supplement or with one of the following supplements:
1. gallium maltol at a final concentration of 5×10^-4 M;
2. gallium nitrate at a final concentration of 5×10^-4 M;
3. maltol at a concentration of 15×10^-4 M; and
4. CAM at a concentration of 1×10^-5 M.
Three (3) wells were used in each group. The final amount of medium was 300 μL in each well. Culture was continued for 2 days. Bars represent absorbance at 405 nm minus the absorbance at 492 nm.

[3] = distilled deionized water
Description: Under some conditions, water may also be incorporated into the structure. […] The complex can be recrystallized from ethanol or other solvents to increase purity.

With `Cc1occc(=O)c1[O-].Cc1occc(=O)c1[O-].Cc1occc(=O)c1[O-].[Ga+3]` [gallium maltol, neutral 3:1 gallium complex of maltol] the “increase in apoptosis at lower concentrations” value ([1]; cultured 3 days prior, FIG. 5) was “failed to provide such a significant increase in apoptosis”, the “increase in apoptosis at lower concentrations” value ([1]; cultured 6 days prior, FIG. 6) was “smaller increases in apoptosis at lower concentrations” and the “increase in apoptosis compared to control” value [2] was ~19 fold. The solubility [3] was “about 24 millimolar”.
